Assay results reported in PubChem BioAssay (NCI).
Values joined by “and” are separate entries in the source; they are usually repeats but may differ in a detail not shown here. Identical values can stand only once.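 48-hour exposure; five concentrations; linearly interpolated endpoints. At the GI50, growth is halved. At the TGI there is no net growth.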

Legend:
Test in all cases: NCI tumour cell line growth inhibition, 48 h
A549 NSCLC = tested on: A549 NSCLC
BT-549 breast = tested on: BT-549 breast
DU-145 prostate = tested on: DU-145 prostate
MALME-3M melanoma = tested on: MALME-3M melanoma
RXF 393 renal = tested on: RXF 393 renal
SF-268 CNS = tested on: SF-268 CNS
SF-295 CNS = tested on: SF-295 CNS
SK-MEL-2 melanoma = tested on: SK-MEL-2 melanoma
SNB-19 CNS = tested on: SNB-19 CNS
SW-620 colon = tested on: SW-620 colon

Row | SMILES | TGI (A549 NSCLC) | TGI (BT-549 breast) | TGI (DU-145 prostate) | TGI (MALME-3M melanoma) | TGI (RXF 393 renal) | TGI (SF-268 CNS) | TGI (SF-295 CNS) | TGI (SK-MEL-2 melanoma) | TGI (SNB-19 CNS) | TGI (SW-620 colon) | GI50 (A549 NSCLC) | GI50 (BT-549 breast) | GI50 (DU-145 prostate) | GI50 (MALME-3M melanoma) | GI50 (RXF 393 renal) | GI50 (SF-268 CNS) | GI50 (SF-295 CNS) | GI50 (SK-MEL-2 melanoma) | GI50 (SNB-19 CNS) | GI50 (SW-620 colon)
1 | CN(C)c1ccc(/C=C2\N=C(c3ccc([N+](=O)[O-])cc3)OC2=O)cc1 | > 100 µM | > 100 µM | > 100 µM | > 100 µM | > 100 µM | > 100 µM | > 100 µM | > 100 µM | > 100 µM | > 100 µM | – | – | – | – | – | – | – | – | – | –
2 | COC(=O)[C@]12CC[C@@H](C)[C@H](C)[C@@H]1C1=CC[C@@H]3[C@@]4(C)C(C=O)=C[C@@](C)(COC(=O)c5ccco5)[C@@H]4C(=O)C[C@@]3(C)[C@]1(C)CC2 | > 100 µM | > 100 µM | > 100 µM | 0.256 µM | 35.3 µM | > 100 µM | > 100 µM | 2.78 µM | > 100 µM | > 100 µM | 3.99 µM | 4.06 µM | 8.8 µM | 0.0359 µM | 3.35 µM | 7.03 µM | 3.99 µM | 0.5 µM | 6.15 µM | 4.9 µM
3 | CC/C=C\C/C=C\C[C@H](O)C/C=C1/C(=O)C=C[C@@H]1C/C=C\CCCC(=O)O | 56.6 µM | 9.1 µM | 19 µM | 15.6 µM | 8.71 µM | 34 µM | 22.4 µM | 13.2 µM | 24.3 µM | 70.6 µM | 13.6 µM | 2.96 µM | 5.17 µM | 3.46 µM | 2.94 µM | 5.2 µM | 7.86 µM | 3.33 µM | 8.75 µM | 4.46 µM
4 | CNC(=O)c1ccc2cc(C3(O)CCn4cncc43)ccc2c1 (stereo not drawn) | > 100 µM | > 100 µM | > 100 µM | > 100 µM | > 100 µM | > 100 µM | > 100 µM | > 100 µM | > 100 µM | > 100 µM | > 100 µM | > 100 µM | > 100 µM | > 100 µM | > 100 µM | > 100 µM | > 100 µM | > 100 µM | > 100 µM | > 100 µM
5 | CC(=O)c1c(C)n(C)c2c1nnc1ccccc12 | > 100 µM | > 100 µM | > 100 µM | > 100 µM | > 100 µM | > 100 µM | > 100 µM | > 100 µM | > 100 µM | > 100 µM | – | – | – | – | – | – | – | – | – | –
6 | O=C(CN1CCN(c2ccc(Cl)cc2)CC1)N1CCN(c2nnc(-c3ccc(Cl)cc3)c(-c3ccc(Cl)cc3)n2)CC1 | > 100 µM | > 100 µM | > 100 µM | > 100 µM | 77.3 µM | > 100 µM | > 100 µM | > 100 µM | 63.5 µM | > 100 µM | > 100 µM | 28.7 µM | 80 µM | 39.9 µM | 23.8 µM | 34 µM | 20.9 µM | 51.5 µM | 19.1 µM | > 100 µM
7 | C=CC(C)(O)/C=C/C=C(\C)C(CC1OC1(C)C)OC(=O)/C(C)=C\C (stereo not drawn) | > 100 µM | > 100 µM | > 100 µM | > 100 µM | > 100 µM | > 100 µM | > 100 µM | > 100 µM | > 100 µM | > 100 µM | – | – | – | – | – | – | – | – | – | –
8 | O=P(NC12CC3CC(CC(C3)C1)C2)(N1CC1)N1CC1 | > 100 µM | > 100 µM | > 100 µM | > 100 µM | 74.3 µM | > 100 µM | > 100 µM | > 100 µM | > 100 µM | > 100 µM | – | – | – | – | – | – | – | – | – | –
9 | CN1CCN(c2ccc3nc(-c4c(N)c5c(F)cccc5[nH]c4=O)[nH]c3c2)CC1 | 2.15 µM and > 3.74 µM and 3.86 µM | 10.2 µM and > 2.97 µM and 5.95 µM | 2.97 µM and > 6.53 µM and 9.59 µM | 2.46 µM and 1.75 µM and 1.97 µM | 1.19 µM and 0.632 µM and 1.18 µM | 4.16 µM and > 2.83 µM and 10.1 µM | 8.1 µM and > 6.69 µM and 8.95 µM | 5.41 µM and > 2.24 µM and 22.8 µM | 8.89 µM and > 10 µM and 12.6 µM | 1.94 µM and 3.21 µM and 2.65 µM | 0.594 µM and 0.451 µM and 0.674 µM | 1.62 µM and 0.501 µM and 1.26 µM | 0.991 µM and 0.547 µM and 1.06 µM | 0.901 µM and 0.498 µM and 0.547 µM | 0.216 µM and 0.212 µM and 0.282 µM | 1.39 µM and 0.717 µM and 1.65 µM | 2.41 µM and 1.09 µM and 3.14 µM | 0.419 µM and 0.4 µM and 0.936 µM | 1.9 µM and > 1.97 µM and 2.56 µM | 0.533 µM and 0.379 µM and 0.576 µM
10 | O=C(CCCN1CCOCC1)Nc1ccc(Cn2nnc3c2C(=O)c2nnn(Cc4ccc(NC(=O)CCCN5CCOCC5)cc4)c2C3=O)cc1 | > 100 µM | 18.4 µM | > 100 µM | 2.79 µM | 38.9 µM | 12.1 µM | > 100 µM | 4.15 µM | 3.59 µM | > 100 µM | > 100 µM | 4.68 µM | 7.3 µM | 1.21 µM | 4.33 µM | 3.21 µM | > 100 µM | 2.04 µM | 1.84 µM | 2.85 µM
11 | CN(N=O)C(=O)N[C@@H](C=O)[C@@H](O)[C@H](O)[C@H](O)CO | > 750 µM | > 750 µM | > 750 µM | 657 µM and > 750 µM | > 750 µM | > 750 µM | 621 µM and > 750 µM | > 750 µM | > 750 µM | 590 µM and > 750 µM | > 750 µM | – | – | > 750 µM | > 750 µM | > 750 µM | > 750 µM | > 750 µM | > 750 µM | > 750 µM
12 | O=C(Nc1ccc(Oc2ccc3nc(NC(=O)c4ccccc4)[nH]c3c2)cc1)Nc1cc(C(F)(F)F)ccc1F | 13.3 µM | 8.57 µM | 16.6 µM | 11.9 µM | 8.49 µM | 24.4 µM | 4.49 µM | 3.63 µM | > 25 µM | > 25 µM | 0.846 µM | 1.19 µM | 1.32 µM | 1.3 µM | 1.11 µM | 2.03 µM | 0.71 µM | 0.832 µM | 5.56 µM | 1.27 µM
